Measurements as given in US10670605B2, “Cysteine reactive probes and uses thereof” (The Scripps Research Institute, priority 2015, dated 2020).
Several values for one entry are separate records, joined by “and”; a condition that tells them apart may be missing. Identical values can stand only once.

Columns and labels:
Assay in all cases: Competitive isoTOP-ABPP, cell lysates
Assay type in all cases: binding
ACAT1 C119 (P24752) = molecular target: T1, ACAT1 C119 (P24752) (Homo sapiens, UniProt P24752)
T1 sequence (P24752 34-427): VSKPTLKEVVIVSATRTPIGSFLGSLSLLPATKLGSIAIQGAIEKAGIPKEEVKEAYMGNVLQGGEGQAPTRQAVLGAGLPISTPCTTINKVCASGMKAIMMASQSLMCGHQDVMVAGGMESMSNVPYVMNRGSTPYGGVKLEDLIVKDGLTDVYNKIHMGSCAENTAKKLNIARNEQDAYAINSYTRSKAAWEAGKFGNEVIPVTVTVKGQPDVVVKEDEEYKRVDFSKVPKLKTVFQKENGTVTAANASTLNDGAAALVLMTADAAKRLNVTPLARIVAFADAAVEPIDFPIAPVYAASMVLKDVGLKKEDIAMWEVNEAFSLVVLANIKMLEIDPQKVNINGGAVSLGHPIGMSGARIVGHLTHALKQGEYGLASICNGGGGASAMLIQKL

ACAT1 C196 (P24752) = molecular target: T2, ACAT1 C196 (P24752) (Homo sapiens, UniProt P24752)
T2 sequence (P24752 34-427): T1 sequence (P24752 34-427)

ACAT1 C126 (P24752) = molecular target: T3, ACAT1 C126 (P24752) (Homo sapiens, UniProt P24752)
T3 sequence (P24752 34-427): T1 sequence (P24752 34-427)

USP22 C171 (Q9UPT9) = molecular target: T4, USP22 C171 (Q9UPT9) (Homo sapiens, UniProt Q9UPT9)
T4 sequence (Q9UPT9 1-525): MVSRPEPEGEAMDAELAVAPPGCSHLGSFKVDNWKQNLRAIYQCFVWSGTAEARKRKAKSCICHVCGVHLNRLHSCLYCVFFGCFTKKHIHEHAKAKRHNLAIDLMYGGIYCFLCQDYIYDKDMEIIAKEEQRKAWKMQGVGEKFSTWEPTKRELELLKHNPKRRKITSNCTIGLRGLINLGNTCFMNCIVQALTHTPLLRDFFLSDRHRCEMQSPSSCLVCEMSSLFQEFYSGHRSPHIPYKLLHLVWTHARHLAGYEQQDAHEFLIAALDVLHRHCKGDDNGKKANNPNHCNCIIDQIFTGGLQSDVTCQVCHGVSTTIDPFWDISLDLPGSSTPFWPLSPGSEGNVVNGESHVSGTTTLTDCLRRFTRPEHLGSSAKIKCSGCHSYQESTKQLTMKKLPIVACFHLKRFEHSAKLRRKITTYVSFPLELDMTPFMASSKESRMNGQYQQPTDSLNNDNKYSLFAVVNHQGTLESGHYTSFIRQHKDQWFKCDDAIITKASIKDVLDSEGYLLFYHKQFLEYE

ADA C75 (P00813) = molecular target: T5, ADA C75 (P00813) (Homo sapiens, UniProt P00813)
T5 sequence (P00813 1-363): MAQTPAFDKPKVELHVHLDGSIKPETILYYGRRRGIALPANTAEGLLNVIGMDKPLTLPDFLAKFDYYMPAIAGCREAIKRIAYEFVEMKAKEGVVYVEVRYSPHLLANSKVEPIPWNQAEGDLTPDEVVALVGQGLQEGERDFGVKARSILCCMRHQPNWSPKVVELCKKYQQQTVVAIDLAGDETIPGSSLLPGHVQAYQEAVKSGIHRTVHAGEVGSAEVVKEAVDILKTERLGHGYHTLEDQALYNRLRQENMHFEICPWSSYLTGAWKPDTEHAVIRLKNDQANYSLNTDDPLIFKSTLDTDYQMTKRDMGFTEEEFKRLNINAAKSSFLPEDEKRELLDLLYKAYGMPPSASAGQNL

UBE2S C118 (Q16763) = molecular target: T6, UBE2S C118 (Q16763) (Homo sapiens, UniProt Q16763)
T6 sequence (Q16763 1-222): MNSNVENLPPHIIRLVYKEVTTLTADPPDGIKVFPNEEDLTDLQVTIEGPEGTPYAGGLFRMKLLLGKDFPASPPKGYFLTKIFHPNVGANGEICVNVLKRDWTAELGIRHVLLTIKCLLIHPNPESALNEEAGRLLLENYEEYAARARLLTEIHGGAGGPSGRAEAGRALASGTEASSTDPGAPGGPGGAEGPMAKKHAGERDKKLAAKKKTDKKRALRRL

| Structure (SMILES) | isoTOP-ABPP ratio (reactivity profile), P24752_C119 (ACAT1 C119 (P24752); 500 μm in-vitro ramos) | isoTOP-ABPP ratio (reactivity profile), P24752_C119 (ACAT1 C119 (P24752); 500 μm in-vitro ramos_231) | isoTOP-ABPP ratio (reactivity profile), P24752_C196 (ACAT1 C196 (P24752); 500 μm in-vitro ramos) | isoTOP-ABPP ratio (reactivity profile), P24752_C196 (ACAT1 C196 (P24752); 500 μm in-vitro ramos_231) | isoTOP-ABPP ratio (reactivity profile), P24752_C126 (ACAT1 C126 (P24752); 500 μm in-vitro ramos) | isoTOP-ABPP ratio (reactivity profile), P24752_C126 (ACAT1 C126 (P24752); 500 μm in-vitro ramos_231) | isoTOP-ABPP ratio (reactivity profile), Q9UPT9_C171 (USP22 C171 (Q9UPT9); 500 μm in-vitro ramos) | isoTOP-ABPP ratio (reactivity profile), P00813_C75 (ADA C75 (P00813); 500 μm in-vitro ramos) | isoTOP-ABPP ratio (reactivity profile), Q16763_C118 (UBE2S C118 (Q16763); 500 μm in-vitro ramos) | isoTOP-ABPP ratio (reactivity profile), Q9UPT9_C171 (USP22 C171 (Q9UPT9); 500 μm in-vitro ramos_231) | isoTOP-ABPP ratio (reactivity profile), Q16763_C118 (UBE2S C118 (Q16763); 500 μm in-vitro ramos_231) | isoTOP-ABPP ratio (reactivity profile), P00813_C75 (ADA C75 (P00813); 500 μm in-vitro ramos_231) |
| --- | --- | --- | --- | --- | --- | --- | --- | --- | --- | --- | --- | --- |
| O=C(CCl)N1CCC(C(O)(c2ccccc2)c2ccccc2)CC1 [compound 20] | 2.6 | 3.6 | 2.9 | 3.7 | 20.0 | 10.6 | 20.0 | 1.5 | 2.9 | – | – | – |
| O=C(CCl)N1CCOCC1 [compound 22] | 0.8 | 1.0 | 0.7 | 1.4 | 1.7 | 2.4 | 1.1 | 1.3 | 0.9 | – | – | – |
| N#C/C(=C\c1cc(C(F)(F)F)cc(C(F)(F)F)c1)C(N)=O [compound 23] | 2.0 | 1.7 | 1.8 | – | 0.8 | 0.8 | – | 1.1 | 2.4 | 5.1 | 1.6 | – |
| CC(Br)C(=O)Nc1cc(C(F)(F)F)cc(C(F)(F)F)c1 (stereo not drawn) [compound 24] | 1.3 | – | 1.1 | – | 1.1 | – | 3.1 | 1.2 | 1.2 | – | – | – |
| O=C(/C=C/c1ccccc1)Nc1cc(C(F)(F)F)cc(C(F)(F)F)c1 [compound 26] | 1.0 | – | 1.0 | – | 0.9 | – | 1.0 | 0.8 | 0.9 | – | – | – |
| CC(C)CCOCCNC(=O)CCl [compound 27] | 1.0 | 0.9 and 1.0 | 1.1 | 0.9 and 1.0 | 1.3 | 0.9 and 1.0 | 1.2 | 1.0 | 0.9 | – | 0.8 | 1.1 |
| COc1ccccc1OCCNC(=O)CCl [compound 28] | 1.1 | 1.1 | 1.1 | 1.0 | 1.6 | 1.7 | 1.3 | 0.9 | 0.8 | – | 1.0 | – |
